Experimental findings from patent publication US20190169218A1, “AMPHIPATHIC COMPOUND HAVING NOVEL PENTA-SACCHARIDE HYDROPHILIC GROUP AND USE THEREOF” (Industry-University Cooperation Foundation Hanyang …, priority 2016, published 2019) are described below.

The structures appear in SMILES notation.

Experiment [1] concerns the target T1, human β2 adrenergic receptor (β2AR) (Homo sapiens, UniProt P07550).
T1 construct: Flag; made in house
Description: β2AR activity by [3H]-dihydroalprenolol radioactive ligand binding assay. The format is biochemical. Particulars: for long-term β2AR activity ([3H]-DHA binding): 3 or 5 days at room temperature. The protocol:
The membrane protein stabilizing ability of receptors (mBBr-β2ARs) solubilized in PSAs or PSEs was evaluated by measuring the binding activity of the receptors to [^3H]-dihydroalprenolol ([^3H]-DHA).
Specifically, radioactive ligand binding assay was performed as follows. β2ARs purified with 0.1 wt % DDM was concentrated to about 10 mg/mL (approximately 200 μM). β2ARs purified with DDM were used to prepare a master binding mixture containing 10 nM [^3H]-dihydroalprenolol (DHA), which was dissolved in 0.2 wt % of DDM, PSA or PSE and supplemented with 0.5 mg/mL BSA. At a concentration of 0.2 pmol, the activity of the receptors purified with the amphipathic compounds was monitored at regular intervals over a 4-day incubation period. Protein samples were incubated on ice for 2 days and then at room temperature for 2 days. Receptor activity was measured by binding assay for dissolved radioactive ligands. The receptors purified with DDM or a novel formulation (PSA-C11, PSE-C11 or PSE-C13) were incubated with 10 nM [^3H]-DHA at room temperature for 30 minutes. The mixture was loaded onto a G-50 column, a solution passed through the column was collected in 1 mL of a binding buffer (100 mM NaCl and 20 mM HEPES (pH 7.5) supplemented with 0.5 mg/mL BSA and 20×CMC amphipathic compounds), and 15 mL of a scintillation fluid was added to the solution. Receptor-bound [^3H]-DHA was measured using a scintillation counter (Beckman). Non-specific binding of [^3H]-DHA was measured by adding 1 μM alprenolol (Sigma) to the same reaction mixture. The binding degree of the receptors to [^3H]-DHA was represented by a column graph.
The ability of TPSs (TPS-As, TPS-Es and TPS-ELs) to stabilize the structures of human β2 adrenergic receptors (β2ARs) and G protein-coupled receptors (GPCRs) was measured. That is, DDM-purified receptors were diluted with a buffer solution containing only each of the TPSs without cholesteryl hemisuccinate (CHS) or a buffer solution containing CHS and DDM. The final concentration of the compounds was CMC+0.2wt %, and the binding activity of the receptors to ligands was evaluated by measuring the degree of binding of the receptors to [^3H]-dihydroalprenolol ([^3H]-DHA).
Specifically, radioactive ligand binding assay was performed as follows. β2ARs were purified with 0.1 wt % DDM (D. M. Rosenbaum et al., Science, 2007, 318, 1266-1273.) and was concentrated to about 10 mg/mL (approximately 200 μM). β2ARs purified with DDM were used to prepare a master binding mixture containing 10 nM [^3H]-dihydroalprenolol (DHA), which was dissolved in 0.2% amphipathic compounds (DDM or TPSs) and supplemented with 0.5 mg/mL BSA. The activity of the receptors purified with the amphipathic compounds was monitored at regular intervals over a 3- to 5-day incubation period. The receptors purified with DDM or TPSs were incubated with 10 nM [^3H]-DHA at room temperature for 30 minutes. The mixture was loaded onto a G-50 column, a solution passed through the column was collected in 1 mL of a binding buffer (100 mM NaCl and 20 mM HEPES (pH 7.5) supplemented with 0.5 mg/mL BSA and 20×CMC of each amphipathic compound), and 15 mL of a scintillation fluid was added to the solution. Receptor-bound [^3H]-DHA was measured using a scintillation counter (Beckman). The binding degree of the receptors to [^3H]-DHA was represented by a column graph.

Experiment [2] deals with leucine transporter (LeuT). Description: LeuT stability, [3H]-Leu binding by scintillation proximity assay (SPA). Format: biochemical, Aquifex aeolicus. Particulars: room temperature. The protocol: The ability of PSAs, PSEs or TPSs (TPS-A/E/ELs) to stabilize leucine transporter (LeuT), a membrane protein, was measured. LeuT purified by DDM was mixed with a solution containing each amphipathic compound, and the mixture was incubated at room temperature for 12 days. The activity of LeuT proteins was measured by scintillation proximity assay (SPA) using a ligand ([^3H]-Leu), and the concentration of PSAs, PSEs, TPSs or DDM was (a) CMC+0.04 wt %, or (b) CMC+0.2 wt %.
Specifically, LeuT stability measurement was performed in the following manner. According to the results of Example 6, PSA-C10, PSA-C11, PSE-C9, PSE-C11, and PSE-C13 were selected as the amphipathic compounds of PSAs and PSEs except for PSA-C9, and wild type leucine transporter (LeuT) was purified from Aquifex aeolicus using TPS-As, TPS-Es and TPS-EL, according to the method described in G. Deckert et al. (Nature 1998, 392, 353-358.). E. coli C41 (DE3) was transformed with a pET16b plasmid containing a gene construct encoding C-terminal 8×His-tagged LeuT, and thus LeuT was expressed in the form of a fusion protein having 8×His tags at the C-terminus in the transformed E. coli C41 (the expression plasmid was provided by Dr. E. Gouaux, Vollum Institute, Portland, Oreg., USA). Briefly, bacterial membranes containing LeuT were treated with 1.0 wt % DDM, and proteins were bound to Ni^2+-NTA resin (Life Technologies, Denmark). LeuT bound to the resin was eluted using a buffer solution containing 20 mM Tris-HCl (pH 8.0), 1 mM NaCl, 199 mM KCl, 0.05% DDM and 300 mM imidazole. Next, about 1.5 mg/mL of protein stock was diluted 10-fold in an equivalent buffer supplemented with TPS-As, TPS-Es, TPS-ELs, PSAs/PSEs (PSA-C10, PSA-C11, PSE-C9, PSE-C11 and PSE-C13) or DDM (control group) to a final concentration of CMC+0.04 wt % or CMC+0.2 wt % without DDM and imidazole. The protein samples were stored at room temperature and centrifuged at designated times. Protein activity was determined by measuring the degree of binding to [^3H]-Leu using scintillation proximity assay (SPA) (M. Quick et al., Proc. Natl, Acad. Sci. U.S.A. 2007, 104, 3603-3608.). Briefly, SPA was performed with 5 μL of each protein sample dissolved in a buffer containing 450 mM NaCl and each test compound. The SPA reaction was performed in the presence of 20 nM [^3H]-Leu and copper chelate (His-Tag) YSi beads (both were purchased from PerkinElmer, Denmark). The degree of binding to [^3H]-Leu was measured using a MicroBeta liquid scintillation counter (PerkinElmer).
In general terms: Scintillation proximity formats need no separation of bound from free tracer.

[3] abbreviates: first two days of incubation at 0° C.

T1 sequence (P07550 whole entry): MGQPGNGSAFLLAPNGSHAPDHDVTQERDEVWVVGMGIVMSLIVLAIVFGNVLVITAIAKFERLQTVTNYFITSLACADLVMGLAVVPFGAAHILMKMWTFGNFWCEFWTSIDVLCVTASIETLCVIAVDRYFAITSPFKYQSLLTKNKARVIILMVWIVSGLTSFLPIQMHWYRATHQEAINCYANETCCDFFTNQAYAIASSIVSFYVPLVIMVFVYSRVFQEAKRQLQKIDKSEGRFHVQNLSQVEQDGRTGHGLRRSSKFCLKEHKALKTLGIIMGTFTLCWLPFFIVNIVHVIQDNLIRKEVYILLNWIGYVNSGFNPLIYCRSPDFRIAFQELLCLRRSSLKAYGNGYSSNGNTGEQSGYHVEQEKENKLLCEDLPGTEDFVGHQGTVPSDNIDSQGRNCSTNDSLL

With `CCCCCCCCCCCC(CCCCCCCCCCC)CO[C@@H]1OC(CO[C@@H]2OC(CO)[C@@H](O)C(O)C2O)[C@@H](O[C@@H]2OC(CO)[C@@H](O)C(O)C2O)C(O[C@@H]2OC(CO)[C@@H](O)C(O)C2O)C1O[C@@H]1OC(CO)[C@@H](O)C(O)C1O` (stereo partly shown) [PSA-C11], the “β2AR activity ([3H]-DHA binding) during incubation” value in experiment [1] (setting [3]) was “well maintained the initial activity thereof”.
As for `CCCCCCCCOCC(COCCCCCCCC)(COCCCCCCCC)CO[C@@H]1OC(CO[C@@H]2OC(CO)[C@@H](O)C(O)C2O)[C@@H](O[C@@H]2OC(CO)[C@@H](O)C(O)C2O)C(O[C@@H]2OC(CO)[C@@H](O)C(O)C2O)C1O[C@@H]1OC(CO)[C@@H](O)C(O)C1O` (stereo partly shown) [TPS-E8], the “maintenance of LeuT activity during 12 days of incubation” value (“maintenance” for short) is on record as “remained intact” in experiment [2] (CMC+0.04 wt %) and “completely preserved” in experiment [2] (CMC+0.2 wt %). Moreover, the “long-term β2AR activity ([3H]-DHA binding)” value in experiment [1] is “significantly better than that of DDM”. Besides, in experiment [1] (TPSs at CMC+0.2wt %, without CHS), the “initial β2AR activity ([3H]-DHA binding)” value was “the most excellent”.
Take `CCCCCCCCCCCCCOCC(COCCCCCCCCCCCCC)O[C@@H]1OC(CO[C@@H]2OC(CO)[C@@H](O)C(O)C2O)[C@@H](O[C@@H]2OC(CO)[C@@H](O)C(O)C2O)C(O[C@@H]2OC(CO)[C@@H](O)C(O)C2O)C1O[C@@H]1OC(CO)[C@@H](O)C(O)C1O` (stereo partly shown) [PSE-C13]: in experiment [2] (CMC+0.04 wt %), the “maintenance” value was “did not show any appreciable decrease in protein activity”. In addition, in experiment [1] (0.2 wt % DDM, PSA or PSE), the “initial β2AR activity ([3H]-DHA binding)” value is listed as “higher initial activity than proteins solubilized in DDM”. Besides, the “β2AR activity ([3H]-DHA binding) during incubation” value in experiment [1] (setting [3]) is listed as “well maintained the initial activity thereof”.
Regarding `CCCCCCCCCCCCO[C@@H]1O[C@H](CO)[C@@H](O[C@H]2O[C@H](CO)[C@@H](O)[C@H](O)[C@H]2O)[C@H](O)[C@H]1O` [DDM, n-dodecyl-β-D-maltopyranoside, reference compound], the “long-term β2AR activity ([3H]-DHA binding)” value in experiment [1] is listed as “the activity was rapidly lost over time”. The “β2AR activity ([3H]-DHA binding) during incubation” value in experiment [1] (setting [3]) is “well maintained the initial activity thereof”.
Regarding `CCCCCCCCCCCOCC(COCCCCCCCCCCC)O[C@@H]1OC(CO[C@@H]2OC(CO)[C@@H](O)C(O)C2O)[C@@H](O[C@@H]2OC(CO)[C@@H](O)C(O)C2O)C(O[C@@H]2OC(CO)[C@@H](O)C(O)C2O)C1O[C@@H]1OC(CO)[C@@H](O)C(O)C1O` (stereo partly shown) [PSE-C11], the figures for the “maintenance” value in experiment [2] (CMC+0.04 wt %) and in experiment [2] (CMC+0.2 wt %) were “did not show any appreciable decrease in protein activity” and “completely preserved”, respectively. In addition, the “LeuT transporter activity retained after 12 days of incubation” value in experiment [2] (CMC+0.2 wt %, 12 days) is 100%. For the same molecule, the “initial β2AR activity ([3H]-DHA binding)” value in experiment [1] (0.2 wt % DDM, PSA or PSE) is “higher initial activity than proteins solubilized in DDM”. In addition, the “β2AR activity ([3H]-DHA binding) during incubation” value in experiment [1] (setting [3]) is reported as “well maintained the initial activity thereof”; in experiment [1] (incubation at room temperature (days 3-4)) it was “the best”.
